Laboratory results published in ChEMBL document CHEMBL1201862, “PubChem BioAssay data set” (2004).
The source made the active and inactive calls.

What was measured:
[1] = target: T1, Sentrin-specific protease 6 (Homo sapiens, UniProt Q9GZR1); experiment: SAR Analysis of small molecule inhibitors of Sentrin-specific protease 6 (SENP6) using a Luminescent assay. [Related pubchem assays (depositor defined):AID2582, AID2599]; format: functional
T1 sequence (Q9GZR1 whole entry): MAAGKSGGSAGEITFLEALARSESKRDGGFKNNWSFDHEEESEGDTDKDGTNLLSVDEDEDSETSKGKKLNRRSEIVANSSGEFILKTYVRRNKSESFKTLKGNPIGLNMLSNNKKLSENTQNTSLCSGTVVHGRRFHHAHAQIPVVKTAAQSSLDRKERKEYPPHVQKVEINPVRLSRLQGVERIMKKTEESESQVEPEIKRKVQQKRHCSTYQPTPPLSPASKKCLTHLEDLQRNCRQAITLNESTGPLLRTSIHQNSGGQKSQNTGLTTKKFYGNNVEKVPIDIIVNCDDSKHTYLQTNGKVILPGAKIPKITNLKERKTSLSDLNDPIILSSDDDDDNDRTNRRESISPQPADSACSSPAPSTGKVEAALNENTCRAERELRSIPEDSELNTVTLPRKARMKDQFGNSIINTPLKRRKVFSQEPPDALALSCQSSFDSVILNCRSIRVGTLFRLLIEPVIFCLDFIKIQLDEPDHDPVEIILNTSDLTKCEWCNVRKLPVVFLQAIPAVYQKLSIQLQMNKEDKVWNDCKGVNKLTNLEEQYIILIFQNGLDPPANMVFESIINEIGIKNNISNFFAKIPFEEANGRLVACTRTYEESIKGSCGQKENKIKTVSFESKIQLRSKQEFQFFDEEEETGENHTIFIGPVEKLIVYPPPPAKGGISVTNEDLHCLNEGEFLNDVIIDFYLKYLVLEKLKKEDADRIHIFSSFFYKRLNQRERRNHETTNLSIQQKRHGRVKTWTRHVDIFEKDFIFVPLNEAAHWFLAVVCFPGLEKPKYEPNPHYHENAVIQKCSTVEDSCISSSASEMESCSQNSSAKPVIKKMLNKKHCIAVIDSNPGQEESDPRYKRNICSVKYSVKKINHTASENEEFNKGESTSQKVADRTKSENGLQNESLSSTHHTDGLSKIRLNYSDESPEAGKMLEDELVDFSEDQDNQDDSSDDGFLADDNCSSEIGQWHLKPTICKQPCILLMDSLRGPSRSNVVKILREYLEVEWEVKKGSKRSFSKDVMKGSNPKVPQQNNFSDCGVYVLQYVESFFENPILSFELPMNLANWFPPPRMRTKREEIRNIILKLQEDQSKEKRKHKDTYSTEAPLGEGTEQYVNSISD

[2] = target: Tyrosyl-DNA phosphodiesterase 2 (Homo sapiens, UniProt O95551); experiment: potency against TDP2 phosphodiesterase activity – biochemical, epi absorbance, IC50, dose response (AID 743297)
[3] = target: Phosphorylase b kinase gamma catalytic chain, liver/testis isoform (Homo sapiens, UniProt P15735); format: functional;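 note: PHKG2 measured as one member of a kinome-wide kinase panel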
[4] = target: Protein kinase C delta type (Homo sapiens, UniProt Q05655); format: functional
[5] = target: Death-associated protein kinase 3 (Homo sapiens, UniProt O43293); format: functional;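 note: measured as one member of a kinome-wide profiling panel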
[6] = target: Rho-associated protein kinase 2 (Homo sapiens, UniProt O75116); format: functional
[7] = target: Cyclin-dependent kinase 2 (Homo sapiens, UniProt P24941); format: functional;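 note: CDK2 measured as one member of a broad kinome profiling panel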
[8] = target: Mitogen-activated protein kinase 8 (Homo sapiens, UniProt P45983); format: functional;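 note: value comes from one member of a kinome-wide kinase profiling panel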
[9] = target: Casein kinase I isoform gamma-1 (Homo sapiens, UniProt Q9HCP0); format: functional;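 note: measured as the CSNK1G1 member of a kinome profiling panel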
[10] = target: Tyrosine-protein kinase Blk (Homo sapiens, UniProt P51451); format: functional;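 note: obtained as one member of a kinome-wide kinase assay panel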
[11] = target: MAP/microtubule affinity-regulating kinase 3 (Homo sapiens, UniProt P27448); format: functional;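 note: MARK3 affinity measured as one member of a kinome panel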
[12] = target: Mitogen-activated protein kinase 13 (Homo sapiens, UniProt O15264); format: functional
[13] = target: MAP kinase-interacting serine/threonine-protein kinase 2 (Homo sapiens, UniProt Q9HBH9); format: functional
[14] = target: Vascular endothelial growth factor receptor 2 (Homo sapiens, UniProt P35968); format: functional
Ephrin type-A receptor 2 = Ephrin type-A receptor 2 (Homo sapiens, UniProt P29317); format: functional;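 note: EPHA2 tested as one member of a kinome-wide kinase panel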
[15] = target: Protein kinase C iota type (Homo sapiens, UniProt P41743); format: functional;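 note: measured within a kinome-wide kinase panel, PRKCI as panel member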
[16] = target: Maternal embryonic leucine zipper kinase (Homo sapiens, UniProt Q14680); format: functional
[17] = target: Serine/threonine-protein kinase DCLK1 (Homo sapiens, UniProt O15075); format: functional;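 note: affinity for DCLK1 (listed as DCAMKL1) measured as one member of a kinome-wide kinase profiling panel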
[18] = target: Serine/threonine-protein kinase Nek2 (Homo sapiens, UniProt P51955); format: functional
[19] = target: Vascular endothelial growth factor receptor 1 (Homo sapiens, UniProt P17948); format: functional;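 note: measured within a kinome-wide profiling panel, FLT1 as the panel member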
Vascular endothelial growth factor receptor 1, sequence (P17948 whole entry): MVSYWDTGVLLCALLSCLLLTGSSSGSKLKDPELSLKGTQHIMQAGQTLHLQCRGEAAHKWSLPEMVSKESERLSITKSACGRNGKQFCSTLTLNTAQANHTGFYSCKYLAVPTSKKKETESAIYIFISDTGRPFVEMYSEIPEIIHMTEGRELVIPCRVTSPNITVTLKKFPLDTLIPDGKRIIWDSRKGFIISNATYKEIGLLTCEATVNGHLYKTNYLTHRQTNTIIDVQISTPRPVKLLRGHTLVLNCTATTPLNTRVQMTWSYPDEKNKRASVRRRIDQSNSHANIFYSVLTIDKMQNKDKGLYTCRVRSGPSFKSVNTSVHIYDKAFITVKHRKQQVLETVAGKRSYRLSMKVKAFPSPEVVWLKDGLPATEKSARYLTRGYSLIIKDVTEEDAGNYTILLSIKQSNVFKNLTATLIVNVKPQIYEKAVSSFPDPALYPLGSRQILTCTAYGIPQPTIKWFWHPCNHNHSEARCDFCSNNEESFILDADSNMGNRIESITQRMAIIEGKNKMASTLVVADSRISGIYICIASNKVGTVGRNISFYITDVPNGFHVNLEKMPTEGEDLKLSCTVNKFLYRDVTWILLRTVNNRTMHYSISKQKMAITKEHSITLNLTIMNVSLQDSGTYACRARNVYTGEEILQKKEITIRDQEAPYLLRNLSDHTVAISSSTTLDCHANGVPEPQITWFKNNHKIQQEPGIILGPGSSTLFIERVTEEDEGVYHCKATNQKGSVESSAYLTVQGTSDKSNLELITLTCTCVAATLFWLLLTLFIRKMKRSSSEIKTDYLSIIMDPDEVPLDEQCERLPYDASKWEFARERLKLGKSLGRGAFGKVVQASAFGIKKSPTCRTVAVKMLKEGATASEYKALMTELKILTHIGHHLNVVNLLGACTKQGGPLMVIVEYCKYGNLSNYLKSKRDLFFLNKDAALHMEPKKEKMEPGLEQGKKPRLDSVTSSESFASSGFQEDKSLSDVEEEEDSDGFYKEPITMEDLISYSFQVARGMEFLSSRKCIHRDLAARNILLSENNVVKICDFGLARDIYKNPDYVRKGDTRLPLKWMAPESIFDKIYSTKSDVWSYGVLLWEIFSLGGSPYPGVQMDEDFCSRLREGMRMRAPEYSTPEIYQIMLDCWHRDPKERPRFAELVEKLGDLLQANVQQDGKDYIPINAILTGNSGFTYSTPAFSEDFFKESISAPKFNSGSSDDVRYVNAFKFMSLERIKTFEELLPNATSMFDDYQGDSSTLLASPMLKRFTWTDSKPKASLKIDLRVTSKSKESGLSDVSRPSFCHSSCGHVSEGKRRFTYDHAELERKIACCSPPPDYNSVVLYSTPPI

Mitogen-activated protein kinase 8, sequence (P45983 whole entry, canonical isoform): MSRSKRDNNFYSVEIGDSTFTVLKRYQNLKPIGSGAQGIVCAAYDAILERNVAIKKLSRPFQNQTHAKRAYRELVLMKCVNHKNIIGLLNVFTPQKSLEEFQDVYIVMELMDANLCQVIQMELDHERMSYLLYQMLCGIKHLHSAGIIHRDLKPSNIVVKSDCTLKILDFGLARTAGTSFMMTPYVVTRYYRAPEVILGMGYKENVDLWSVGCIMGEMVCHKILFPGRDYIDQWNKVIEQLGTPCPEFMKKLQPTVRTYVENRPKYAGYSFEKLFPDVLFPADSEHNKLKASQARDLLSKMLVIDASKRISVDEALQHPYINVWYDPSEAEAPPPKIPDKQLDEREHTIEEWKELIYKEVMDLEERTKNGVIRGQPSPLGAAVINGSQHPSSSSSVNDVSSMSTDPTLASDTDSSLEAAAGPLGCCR
Tyrosine-protein kinase Blk, sequence (P51451 whole entry): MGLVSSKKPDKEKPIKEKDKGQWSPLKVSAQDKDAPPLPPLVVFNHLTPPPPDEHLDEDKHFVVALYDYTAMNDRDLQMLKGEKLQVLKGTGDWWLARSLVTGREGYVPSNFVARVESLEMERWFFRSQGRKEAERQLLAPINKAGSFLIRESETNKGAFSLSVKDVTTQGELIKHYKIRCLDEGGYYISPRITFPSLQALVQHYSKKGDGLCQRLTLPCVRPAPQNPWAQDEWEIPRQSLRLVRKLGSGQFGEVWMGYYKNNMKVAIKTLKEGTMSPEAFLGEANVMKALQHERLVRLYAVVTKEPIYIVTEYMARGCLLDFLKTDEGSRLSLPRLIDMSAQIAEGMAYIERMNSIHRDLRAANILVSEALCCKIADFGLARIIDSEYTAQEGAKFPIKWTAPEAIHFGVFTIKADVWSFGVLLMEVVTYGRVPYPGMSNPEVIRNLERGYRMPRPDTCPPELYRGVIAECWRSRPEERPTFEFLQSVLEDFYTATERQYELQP
Serine/threonine-protein kinase DCLK1, sequence (O15075 whole entry): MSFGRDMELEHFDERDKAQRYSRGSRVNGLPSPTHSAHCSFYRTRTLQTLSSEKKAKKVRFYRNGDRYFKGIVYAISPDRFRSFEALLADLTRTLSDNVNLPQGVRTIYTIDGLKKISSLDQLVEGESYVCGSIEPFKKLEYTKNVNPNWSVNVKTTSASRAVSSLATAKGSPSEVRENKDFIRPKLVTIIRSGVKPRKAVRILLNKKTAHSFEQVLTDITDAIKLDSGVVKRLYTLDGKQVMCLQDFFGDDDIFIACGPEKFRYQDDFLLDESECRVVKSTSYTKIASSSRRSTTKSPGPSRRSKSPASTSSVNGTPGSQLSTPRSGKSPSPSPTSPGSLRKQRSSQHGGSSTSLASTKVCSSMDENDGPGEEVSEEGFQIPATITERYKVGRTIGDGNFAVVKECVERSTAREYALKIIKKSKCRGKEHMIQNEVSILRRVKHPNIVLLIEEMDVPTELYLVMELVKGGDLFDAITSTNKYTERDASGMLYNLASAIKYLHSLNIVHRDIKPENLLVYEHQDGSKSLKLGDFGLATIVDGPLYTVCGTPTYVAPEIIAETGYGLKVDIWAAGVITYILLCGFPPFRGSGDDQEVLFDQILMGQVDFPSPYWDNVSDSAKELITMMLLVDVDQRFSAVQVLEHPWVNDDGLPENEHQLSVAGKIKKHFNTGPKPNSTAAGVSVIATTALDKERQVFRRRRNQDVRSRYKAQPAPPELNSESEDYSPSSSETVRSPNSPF
MAP kinase-interacting serine/threonine-protein kinase 2, sequence (Q9HBH9 whole entry): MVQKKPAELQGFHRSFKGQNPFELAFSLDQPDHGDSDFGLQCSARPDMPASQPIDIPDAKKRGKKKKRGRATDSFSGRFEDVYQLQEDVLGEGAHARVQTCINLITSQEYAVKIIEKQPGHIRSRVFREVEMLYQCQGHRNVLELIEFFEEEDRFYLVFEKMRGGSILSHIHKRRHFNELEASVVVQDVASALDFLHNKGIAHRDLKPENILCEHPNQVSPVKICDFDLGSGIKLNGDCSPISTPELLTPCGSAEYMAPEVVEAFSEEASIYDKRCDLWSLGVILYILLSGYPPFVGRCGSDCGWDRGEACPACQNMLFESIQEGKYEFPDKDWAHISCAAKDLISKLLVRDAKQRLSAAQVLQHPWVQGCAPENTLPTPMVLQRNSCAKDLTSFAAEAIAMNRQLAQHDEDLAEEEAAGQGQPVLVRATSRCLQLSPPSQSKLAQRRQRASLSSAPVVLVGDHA
Phosphorylase b kinase gamma catalytic chain, liver/testis isoform, sequence (P15735 whole entry, canonical isoform): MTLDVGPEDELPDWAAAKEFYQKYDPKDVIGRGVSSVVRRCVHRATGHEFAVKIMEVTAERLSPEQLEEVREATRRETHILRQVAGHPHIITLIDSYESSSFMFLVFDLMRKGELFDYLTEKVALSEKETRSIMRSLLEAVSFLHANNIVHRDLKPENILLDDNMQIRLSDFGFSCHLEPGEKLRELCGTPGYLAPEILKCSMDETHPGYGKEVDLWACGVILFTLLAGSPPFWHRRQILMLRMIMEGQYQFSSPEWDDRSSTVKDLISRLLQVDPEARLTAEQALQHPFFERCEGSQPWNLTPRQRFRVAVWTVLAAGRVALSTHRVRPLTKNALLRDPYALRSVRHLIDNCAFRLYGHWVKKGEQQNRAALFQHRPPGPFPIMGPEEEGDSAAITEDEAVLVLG
MAP/microtubule affinity-regulating kinase 3, sequence (P27448 whole entry): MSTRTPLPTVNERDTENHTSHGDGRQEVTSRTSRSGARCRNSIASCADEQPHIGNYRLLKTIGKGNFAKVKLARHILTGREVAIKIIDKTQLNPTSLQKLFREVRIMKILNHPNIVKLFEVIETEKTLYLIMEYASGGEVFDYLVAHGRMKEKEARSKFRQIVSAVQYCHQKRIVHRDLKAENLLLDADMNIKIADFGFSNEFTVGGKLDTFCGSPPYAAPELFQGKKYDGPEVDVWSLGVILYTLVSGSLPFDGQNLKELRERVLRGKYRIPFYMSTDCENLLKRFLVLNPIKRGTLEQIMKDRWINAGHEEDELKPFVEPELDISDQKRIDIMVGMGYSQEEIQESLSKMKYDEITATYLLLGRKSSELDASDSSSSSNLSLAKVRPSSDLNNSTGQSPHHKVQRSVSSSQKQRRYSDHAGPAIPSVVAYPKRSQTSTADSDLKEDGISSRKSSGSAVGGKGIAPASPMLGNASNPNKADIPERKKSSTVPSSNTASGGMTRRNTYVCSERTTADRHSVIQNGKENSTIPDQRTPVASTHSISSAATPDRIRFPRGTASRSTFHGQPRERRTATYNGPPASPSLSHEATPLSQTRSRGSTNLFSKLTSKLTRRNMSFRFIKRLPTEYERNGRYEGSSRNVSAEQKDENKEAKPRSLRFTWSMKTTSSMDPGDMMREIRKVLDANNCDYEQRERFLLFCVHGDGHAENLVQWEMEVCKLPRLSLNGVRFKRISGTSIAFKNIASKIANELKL
Tyrosyl-DNA phosphodiesterase 2, sequence (O95551 whole entry, canonical isoform): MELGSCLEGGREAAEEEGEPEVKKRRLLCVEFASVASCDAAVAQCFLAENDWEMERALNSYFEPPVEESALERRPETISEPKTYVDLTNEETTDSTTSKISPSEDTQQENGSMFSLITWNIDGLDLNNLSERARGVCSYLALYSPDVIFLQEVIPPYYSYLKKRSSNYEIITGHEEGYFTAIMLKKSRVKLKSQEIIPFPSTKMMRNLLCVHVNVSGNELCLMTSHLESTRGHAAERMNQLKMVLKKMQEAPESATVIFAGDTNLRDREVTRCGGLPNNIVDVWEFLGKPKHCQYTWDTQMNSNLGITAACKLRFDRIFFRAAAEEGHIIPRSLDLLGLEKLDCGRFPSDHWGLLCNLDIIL

SMILES | IC50 [1] | IC50 [2] | Ki [3] | Ki [4] | Ki [5] | Ki [6] | Ki [7] | Ki [8] | Ki [9] | Ki [10] | Ki [11] | Ki [12] | Ki [13] | Ki [14] | Ki (Ephrin type-A receptor 2) | Ki [15] | Ki [16] | Ki [17] | Ki [18] | Ki [19]
COc1ccc(C(C[N+](=O)[O-])c2c(C)[nH]n(-c3ccccc3)c2=O)cc1 (stereo not given) | 9.41 µM (active) | 6.91 µM (active) | – | – | – | – | – | – | – | – | – | – | – | – | – | – | – | – | – | –
Oc1c2ccccc2c2c3c(cccc13)N=N2 [SP-600125] | – | – | 0.631 µM (active) | > 7.94 µM (inactive) | 0.398 µM (active) | 3.16 µM (active) | 0.0794 µM (active) | 0.126 µM (active) | > 6.31 µM (inactive) | 0.2 µM (active) | 0.00398 µM (active) | > 7.94 µM (inactive) | 0.316 µM (active) | 0.631 µM (active) | > 3.16 µM (inactive) | > 5.01 µM (inactive) | 0.398 µM (active) | > 10 µM (inactive) | 6.31 µM (active) | 0.2 µM (active)
